Data: PubChem BioAssay (NCI)
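Cultured in 96-well plates, cells were exposed to test compound for 48 hours across five concentrations. Abbreviation: GI50, concentration required for 50% inhibition of growth. TGI denotes the concentration required for complete inhibition of growth.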

Legend:
Assay in all cases: inhibition of tumour cell growth, NCI panel, 48 h
KM12 colon = tested on: KM12 colon
MOLT-4 leukemia = tested on: MOLT-4 leukemia
SK-OV-3 ovarian = tested on: SK-OV-3 ovarian
SN12C renal = tested on: SN12C renal
MALME-3M melanoma = tested on: MALME-3M melanoma
OVCAR-3 ovarian = tested on: OVCAR-3 ovarian
HCT-15 colon = tested on: HCT-15 colon
EKVX NSCLC = tested on: EKVX NSCLC
NCI-H522 lung = tested on: NCI-H522 lung
DU-145 prostate = tested on: DU-145 prostate

Structure (SMILES): Cc1ccc([N+](=O)[O-])cc1NC(=O)C(=O)Cc1cc(=O)oc2cc(O)ccc12
- TGI (KM12 colon): > 100 µM
- TGI (MOLT-4 leukemia): > 100 µM
- TGI (SK-OV-3 ovarian): > 100 µM
- TGI (SN12C renal): > 100 µM
- TGI (MALME-3M melanoma): > 100 µM
- TGI (OVCAR-3 ovarian): > 100 µM
- TGI (HCT-15 colon): > 100 µM
- TGI (EKVX NSCLC): > 100 µM
- TGI (NCI-H522 lung): > 100 µM

Structure (SMILES): COc1ccc(CC2NCCc3cc(OC)c(OC)cc32)cc1 (stereo not drawn)
- TGI (KM12 colon): > 100 µM
- TGI (MOLT-4 leukemia): > 100 µM
- TGI (SK-OV-3 ovarian): > 100 µM
- TGI (SN12C renal): > 100 µM
- TGI (MALME-3M melanoma): > 100 µM
- TGI (OVCAR-3 ovarian): > 100 µM
- TGI (HCT-15 colon): > 100 µM
- TGI (EKVX NSCLC): > 100 µM
- TGI (NCI-H522 lung): > 100 µM

Structure (SMILES): O=C1SC(c2ccccc2)(c2ccccc2)c2ccccc21
- TGI (KM12 colon): > 100 µM
- TGI (MOLT-4 leukemia): > 100 µM
- TGI (SK-OV-3 ovarian): > 100 µM
- TGI (SN12C renal): > 100 µM
- TGI (MALME-3M melanoma): > 100 µM
- TGI (OVCAR-3 ovarian): > 100 µM
- TGI (HCT-15 colon): > 100 µM
- TGI (EKVX NSCLC): > 100 µM
- TGI (NCI-H522 lung): > 100 µM

Structure (SMILES): CCCC(=O)Nc1cc([N+](=O)[O-])c([N+](=O)[O-])cc1OC
- TGI (KM12 colon): 27.2 µM
- TGI (SK-OV-3 ovarian): 26.8 µM
- TGI (SN12C renal): 29.5 µM
- TGI (DU-145 prostate): 31.6 µM
- TGI (OVCAR-3 ovarian): 27.8 µM
- TGI (HCT-15 colon): > 100 µM
- TGI (EKVX NSCLC): 31.8 µM
- TGI (NCI-H522 lung): 27.6 µM

Structure (SMILES): Nc1ccc(C(=O)NN2C(=O)C(Cl)C2c2ccc([N+](=O)[O-])cc2)cc1 (stereo not drawn)
- TGI (KM12 colon): 23.9 µM
- TGI (MOLT-4 leukemia): 9.8 µM
- TGI (SK-OV-3 ovarian): 29.1 µM
- TGI (SN12C renal): 30 µM
- TGI (MALME-3M melanoma): 25 µM
- TGI (OVCAR-3 ovarian): 18.4 µM
- TGI (HCT-15 colon): 23.6 µM
- TGI (EKVX NSCLC): 24.4 µM
- TGI (NCI-H522 lung): 3.21 µM

Structure (SMILES): COCOCc1cc(OCc2ccccc2)c(OC)cc1Br
- TGI (KM12 colon): > 100 µM
- TGI (SN12C renal): > 100 µM
- TGI (MALME-3M melanoma): > 100 µM
- TGI (OVCAR-3 ovarian): > 100 µM
- TGI (HCT-15 colon): > 100 µM
- TGI (EKVX NSCLC): > 100 µM

Structure (SMILES): CCCCCCCCCCCCSC(=NC)NC
- GI50 (MOLT-4 leukemia): 2.01 µM
- TGI (MOLT-4 leukemia): 5.05 µM
- GI50 (SK-OV-3 ovarian): 4.26 µM
- TGI (SK-OV-3 ovarian): 19 µM
- GI50 (SN12C renal): 2.67 µM
- TGI (SN12C renal): 7.69 µM
- GI50 (MALME-3M melanoma): 2.04 µM
- TGI (MALME-3M melanoma): 3.97 µM
- GI50 (DU-145 prostate): 3.12 µM
- TGI (DU-145 prostate): 12.3 µM
- GI50 (OVCAR-3 ovarian): 2 µM
- TGI (OVCAR-3 ovarian): 4.82 µM
- GI50 (HCT-15 colon): 1.55 µM
- TGI (HCT-15 colon): 3.39 µM
- GI50 (EKVX NSCLC): 3.71 µM
- TGI (EKVX NSCLC): 17.6 µM

Structure (SMILES): CC(=O)OC1(C#N)CC2OC1C1C2N1C(=O)OC(C)(C)C (stereo not drawn)
- TGI (MOLT-4 leukemia): > 100 µM
- TGI (SK-OV-3 ovarian): > 100 µM
- TGI (SN12C renal): > 100 µM
- TGI (MALME-3M melanoma): > 100 µM
- TGI (HCT-15 colon): > 100 µM
- TGI (EKVX NSCLC): > 100 µM
- TGI (NCI-H522 lung): > 100 µM

Structure (SMILES): Cc1ccc(-c2nc3c(C(=O)NCCN(C)C)cccc3[nH]2)cc1
- TGI (KM12 colon): > 100 µM
- TGI (MOLT-4 leukemia): 18.5 µM
- TGI (SK-OV-3 ovarian): 72.8 µM
- TGI (SN12C renal): 63.5 µM
- TGI (OVCAR-3 ovarian): 86.7 µM
- TGI (HCT-15 colon): 58.2 µM
- TGI (EKVX NSCLC): 69.5 µM

Structure (SMILES): COc1ccc(Cn2cc3c(c2-c2ccc(O)cc2)CCc2cnoc2-3)cc1
- GI50 (KM12 colon): 0.241 µM
- TGI (KM12 colon): 10.4 µM
- GI50 (MOLT-4 leukemia): 0.507 µM
- TGI (MOLT-4 leukemia): 27.4 µM
- GI50 (SK-OV-3 ovarian): 0.34 µM
- TGI (SK-OV-3 ovarian): 14.3 µM
- GI50 (SN12C renal): 1.16 µM
- TGI (SN12C renal): 23.2 µM
- GI50 (DU-145 prostate): 0.365 µM
- TGI (DU-145 prostate): 5.14 µM
- GI50 (OVCAR-3 ovarian): 0.221 µM
- TGI (OVCAR-3 ovarian): 0.557 µM
- GI50 (HCT-15 colon): 0.395 µM
- TGI (HCT-15 colon): 21.6 µM
- GI50 (EKVX NSCLC): 0.438 µM
- TGI (EKVX NSCLC): 26.9 µM
- GI50 (NCI-H522 lung): 0.0822 µM
- TGI (NCI-H522 lung): 0.596 µM

Structure (SMILES): CC(C)[Si](OCC1CC(C[C@H]2CC(C[C@H]3C[C@@H](CO[Si](C(C)C)(C(C)C)C(C)C)OC(C)(C)O3)OC(C)(C)O2)OC(C)(C)O1)(C(C)C)C(C)C (stereo partly drawn)
- TGI (KM12 colon): > 100 µM
- TGI (MOLT-4 leukemia): > 100 µM
- TGI (SK-OV-3 ovarian): > 100 µM
- TGI (MALME-3M melanoma): > 100 µM
- TGI (OVCAR-3 ovarian): > 100 µM
- TGI (EKVX NSCLC): > 100 µM
- TGI (NCI-H522 lung): > 100 µM

Structure (SMILES): CC1CC(=O)C(CC(=O)O)C1C(C(=O)C(=O)Nc1c(C#N)cccc1[N+](=O)[O-])[N+](=O)[O-] (stereo not drawn)
- TGI (KM12 colon): > 100 µM
- TGI (MOLT-4 leukemia): > 100 µM
- TGI (SK-OV-3 ovarian): > 100 µM
- TGI (MALME-3M melanoma): > 100 µM
- TGI (OVCAR-3 ovarian): > 100 µM
- TGI (HCT-15 colon): > 100 µM
- TGI (EKVX NSCLC): > 100 µM

Structure (SMILES): S=P1(c2ccccc2)Nc2ccc(Cl)cc2N1 (stereo not drawn)
- TGI (KM12 colon): > 100 µM
- TGI (MOLT-4 leukemia): > 100 µM
- TGI (SK-OV-3 ovarian): > 100 µM
- TGI (MALME-3M melanoma): > 100 µM
- TGI (OVCAR-3 ovarian): > 100 µM
- TGI (HCT-15 colon): > 100 µM
- TGI (EKVX NSCLC): > 100 µM
- TGI (NCI-H522 lung): > 100 µM

Structure (SMILES): Cn1cnc([N+](=O)[O-])c1SC1=NCCS1
- TGI (KM12 colon): > 100 µM
- TGI (MOLT-4 leukemia): > 100 µM
- TGI (SK-OV-3 ovarian): > 100 µM
- TGI (SN12C renal): > 100 µM
- TGI (MALME-3M melanoma): 70.2 µM
- TGI (OVCAR-3 ovarian): > 100 µM
- TGI (EKVX NSCLC): > 100 µM
- TGI (NCI-H522 lung): 41.7 µM

Structure (SMILES): Cc1ccc(NC(=O)C(=O)C2NC(=S)NC2=O)c([N+](=O)[O-])c1 (stereo not drawn)
- TGI (KM12 colon): > 100 µM
- TGI (MOLT-4 leukemia): > 100 µM
- TGI (SK-OV-3 ovarian): > 100 µM
- TGI (SN12C renal): > 100 µM
- TGI (MALME-3M melanoma): > 100 µM
- TGI (OVCAR-3 ovarian): > 100 µM
- TGI (HCT-15 colon): > 100 µM
- TGI (EKVX NSCLC): > 100 µM
- TGI (NCI-H522 lung): > 100 µM

Structure (SMILES): C=CCC12CC(=O)C=C1CCC1(C2)OCCO1 (stereo not drawn)
- TGI (KM12 colon): > 100 µM
- TGI (MOLT-4 leukemia): > 100 µM
- TGI (SK-OV-3 ovarian): > 100 µM
- TGI (SN12C renal): > 100 µM
- TGI (MALME-3M melanoma): > 100 µM
- TGI (OVCAR-3 ovarian): > 100 µM
- TGI (HCT-15 colon): > 100 µM
- TGI (NCI-H522 lung): > 100 µM

Structure (SMILES): Cc1ccc(S(=O)(=O)N/N=C/c2oc(-c3ccccc3Cl)c(-c3ccccc3Cl)c2[N+](=O)[O-])cc1
- TGI (KM12 colon): > 100 µM
- TGI (MOLT-4 leukemia): > 100 µM
- TGI (SK-OV-3 ovarian): > 100 µM
- TGI (SN12C renal): 66.6 µM
- TGI (MALME-3M melanoma): 71.4 µM
- TGI (OVCAR-3 ovarian): > 100 µM
- TGI (EKVX NSCLC): > 100 µM
- TGI (NCI-H522 lung): 26 µM
